Where two headings read alike, the source gives them in different places.
What was measured:
[1] = tested on: MCF7 cells; experiment: cellular respiration, OXYGRAPH instrument; assay type: cell-based, human
Description: Application of compound 2 leads to marked inhibition of cellular respiration as evidenced by two independent methods: the Oxygraph instrument (Rohlenova, K., Sachaphibulkij, K., Stursa, J., Bezawork-Geleta, A., Blecha, J., Endaya, B., Werner, L., Cerny, J., Zobalova, R., Goodwin, J., Spacek, T., Alizadeh, P. E., Yan, B., Nguyen, M. N., Vondrusova, M., Sobol, M., Jezek, P., Hozak, P., Truksa, J., Rohlena, J., Dong, L. F., & Neuzil, J. (2017) Selective Disruption of Respiratory Supercomplexes as a New Strategy to Suppress Her2high Breast Cancer. Antioxid. Redox. Signal., 26, 84-103) (Table 6) and Seahorse instrument (Table 7). For Seahorse analysis, 20.000 or 30.000 cells were seeded in 96 well plates and incubated with compound 2 for 1 hour. Afterwards, oxygen consumption rate (OCR) and extracellular acidification rate (ECAR) were measured in three cycles of 3 minutes preceded by 3 minutes of mixing, using a Seahorse XFe96 analyzer (Agilent). Results express the mean values of the three cycles.

[2] = tested on: BT474 cells; experiment: AnnexinV/PI cell death assay; assay type: cell-based; details: 48 hrs
Protocol: (§1) To confirm such findings by an independent method, cell death-inducing potency (cytotoxic efficacy) of DFO and compound 2 have been tested via annexin V/PI staining commonly used as a measure of apoptotic/necrotic cell death. Briefly, cells were seeded in 12-well plate at 100,000 per well, incubated with the selected compounds for 48 hours, then floating cells were spun, adherent cells trypsinized and spun as well followed by the staining with AnnexinV-FITC and PI probes. Cells were then washed with PBS and measured via Fluorescence Activated Sorter.

[3] = tested on: BT549 cells; experiment: AnnexinV/PI cell death assay; assay type: cell-based; details: 48 hrs
Protocol: as §1

[4] = tested on: non malignant cells (BJ); experiment: AnnexinV/PI cell death assay; assay type: cell-based; details: for mean percentage of dead cells (AnnexinV/PI): 48 hrs
Protocol: as §1
We have then analyzed the percentage of death cells by the annexinV/PI staining as described in example 7. We have observed a significant potentiation in cell death induction when gallium was combined with compound 2 (Table 14)

[5] = tested on: MCF7 cells; experiment: individual cell movement, Juli FL and Image J; assay type: cell-based, human
Protocol: Additionally, cells seeded identically as in example 26, were treated with 1 to 5 μM concentrations of compound 2 and movie was recorded via the Juli FL system, enabling monitoring of individual movement of cells. The movement was then analyzed by the Image J program to gain the average travelled distance within a specified time. We detected a significant reduction of the total length of travelled trajectory when cells were exposed to compound 2 (Table 12)

[6] = tested on: MCF7 cells; experiment: cellular proliferation in real time, Xcelligence technology; assay type: cell-based
Protocol: The ability of compound 2 to affect the proliferation and cell death induction in real time was monitored by the Xcelligence technology that detects changes in electrical impedance related to the cell number. In brief, special 16-well e-plates containing gold electrodes were filled with medium, blank values were recorded, and then 5.000 cells per well were seeded in the plate and let to attach for 2 hours, followed by the addition of compounds. The electrical impedance was then monitored over time in real-time every 15 minutes. In this case a line is drawn that reflects the cell number over time. […] We have seen a clear inhibition of proliferation with compound 2 at 1 μM, complete block of proliferation at 2 μM concentration, while the cytotoxic effect is seen at 5 μM (Table 9).

[7] = tested on: MDA-MB-231 cells; experiment: AnnexinV/PI cell death assay; assay type: cell-based, human; details: 48 hrs
Protocol: as §1

[8] = tested on: murine triple negative breast cancer cells line 4T1; experiment: tumor growth in vivo, 4T1 model; design: species or system Balb/c gamma mice; details: for Relative tumor size: 4T1, 8 mg/kg i.p. twice per week
Protocol: In order to define the effect of compound 2 on tumor growth and progression in vivo, we tested its effect on the model of syngeneic murine triple negative breast cancer cells line 4T1, Balb/c gamma mice being the […] host. Mice were injected with 1 million of cells s.c. on the right flank. After appearance of tumors (15-60 mm^3) mice were randomized into two separate group, one receiving corn oil (control) and one receiving compound 2 at 8 mg/kg. Tumor progression was then monitored by ultrasound imaging Vevo770 and mice received the treatment twice per week, i.p. in approximately 100 ul of corn oil.

[9] = tested on: CFPAC-1 cells; experiment: crystal violet assay, cellular viability; assay type: cell-based; details: Homo sapiens, CFPAC-1, 48 hours
[10] = tested on: AsPC-1 cells; experiment: crystal violet assay, cellular viability; assay type: cell-based; details: Homo sapiens, ASPC1, AsPC-1, 48 hours
[11] = tested on: NIH:OVCAR-3 cells; experiment: crystal violet assay, cellular viability; assay type: cell-based; details: Homo sapiens, NIH:OVCAR-3, 48 hours
[12] = tested on: PaTu 8902 cells; experiment: crystal violet assay, cellular viability; assay type: cell-based; details: PaTu 8902, 48 hours
[13] = tested on: T47D cells; experiment: crystal violet assay, cellular viability; assay type: cell-based; details: for IC50: Homo sapiens
[14] = tested on: BxPC-3 cells; experiment: crystal violet assay, cellular viability; assay type: cell-based; details: Homo sapiens, BxPC-3, 48 hours

## CC(=O)N(O)CCCCCNC(=O)CCC(=O)N(O)CCCCCNC(=O)CCC(=O)N(O)CCCCCN(CCCCCCCCCC[P+](c1ccccc1)(c1ccccc1)c1ccccc1)CCCCCCCCCC[P+](c1ccccc1)(c1ccccc1)c1ccccc1.[Cl-].[Cl-] [Compound 2, Triphenyl(3,14,25-trihydroxy-2,10,13,21,24-pentaoxo-31-(10-(triphenylphosphonio)decyl)-3,9,14,20,25,31-hexaazahentetracontan-41-yl)phosphonium chloride]
[1]; MCF7, 5 μM
  mean O2 flow per cells: 15.9 pmol/s/mL
[1]; MCF7, 5 μM (5 h)
  mean O2 flow per cells: 9.8 pmol/s/mL
[1]; MCF7, 25 μM
  mean O2 flow per cells: 7.1 pmol/s/mL
[2]; BT474, 5 μM
  mean percentage of dead cells (AnnexinV/PI): 18.6%
[2]; BT474, 10 μM
  mean percentage of dead cells (AnnexinV/PI): 39.9%
[2]; BT474, 20 μM
  mean percentage of dead cells (AnnexinV/PI): 92.5%
[3]; BT549, 5 μM
  mean percentage of dead cells (AnnexinV/PI): 31.8%
[3]; BT549, 10 μM
  mean percentage of dead cells (AnnexinV/PI): 52.3%
[3]; BT549, 20 μM
  mean percentage of dead cells (AnnexinV/PI): 80.4%
[4]; 5 μM
  mean percentage of dead cells (AnnexinV/PI): 6.7%
[4]; 10 μM
  mean percentage of dead cells (AnnexinV/PI): 9.0%
[4]; 20 μM
  mean percentage of dead cells (AnnexinV/PI): 29.8%
[4]; AnnexinV/PI, 48 hours
  concentrations at which toxic effect could be detected in non-malignant BJ cells: higher than 2004
[4]; ratio Ga:compound 2 0:1, 10 μM compound 2 alone
  percentage of death cells by annexinV/PI staining: 9.0 (3.5)
[5]; MCF7, 1 μM
  speed of the movement: 0.16 (0.06) μm*min^−1
  travelled distance of an individual cell between frames: 4.4 (1.4) μm
[5]; MCF7, 2 μM
  speed of the movement: 0.13 (0.05) μm*min^−1
  travelled distance of an individual cell between frames: 3.9 (1.5) μm
[5]; MCF7, 5 μM
  speed of the movement: 0.12 (0.07) μm*min^−1
  travelled distance of an individual cell between frames: 3.1 (0.7) μm
[6]; MCF7, 0-15 h, 1 μM
  slope of the line (relative number of cells in relation to time): 0.32
[6]; MCF7, 0-15 h, 2 μM
  slope of the line (relative number of cells in relation to time): 0.40
[6]; MCF7, 0-15 h, 5 μM
  slope of the line (relative number of cells in relation to time): 0.31
[6]; MCF7, 0-36 h, 1 μM
  slope of the line (relative number of cells in relation to time): 0.35
[6]; MCF7, 0-36 h, 2 μM
  slope of the line (relative number of cells in relation to time): −0.01
[6]; MCF7, 0-36 h, 5 μM
  slope of the line (relative number of cells in relation to time): −0.47
[6]; Xcelligence, MCF7
  concentration at which the cytotoxic effect is seen: 5 µM
  concentration with clear inhibition of proliferation: 1 µM
  concentration with complete block of proliferation: 2 µM
[7]; MDA-MB-231, 5 μM
  mean percentage of dead cells (AnnexinV/PI): 39.8%
[7]; MDA-MB-231, 10 μM
  mean percentage of dead cells (AnnexinV/PI): 78.5%
[7]; MDA-MB-231, 20 μM
  mean percentage of dead cells (AnnexinV/PI): 98.0%
[8]; 4T1, 8 mg/kg
  effect on relative tumor growth, in words: significantly reduces relative tumor growth
[8]; Day 0
  Relative tumor size: 1.0
[8]; Day 4
  Relative tumor size: 1.3
[8]; Day 7
  Relative tumor size: 1.1
[8]; Day 11
  Relative tumor size: 1.4
[8]; Day 14
  Relative tumor size: 1.6
[8]; Day 18
  Relative tumor size: 2.5
[9]
  IC50: 6.9 µM
[10]
  IC50: 2.6 µM
[11]
  IC50: 3.7 µM
[12]
  IC50: 5.5 µM
[13]; BJ vs T47D, 48 hours
  Selectivity index (IC50 non-malignant/IC50 malignant): 4.77
[13]; T47D Parental, read-out: IC50 crystal violet
  IC50: 3 µM
[13]; T47D, 48 hours, crystal violet, read-out: IC50 cellular viability
  IC50: 3 µM
[14]
  IC50: 1.7 µM

— patent publication US20200078379A1, “DEFEROXAMINE DERIVATIVES AS MEDICAMENTS” (BIOTECHNOLOGICKY USTAV AV CR, V.V.I., priority 2017, published 2020)
